Consider eleven molecules from paper PMC10925992 (Heliyon, 2024).

The test system of assay [1] is p53 mRNA in HCT-116 cells. In words: Quantitative gene expression analysis. It counts as cell-based, human. The conditions noted are these: HCT116, compound at IC50 concentration, 48 h, versus untreated cells.
Assay [2] has as its system HCT116 cells. In words: MTT anti-proliferation assay. It counts as cell-based, human. The following applies: for IC50: Homo sapiens, HCT-116, 48 h; for inhibition of proliferation of cancerous cells: HCT116, MTT, 48 h.
Assay [3] deals with USP7, MDM2 and c-Myc mRNA in HCT-116 cells. In words: Quantitative gene expression analysis. It counts as cell-based, human. The following applies: HCT116, compound at IC50 concentration, 48 h, versus untreated cells.
The target in assay [4] is catalytic domain of USP7 (USP7-CD) (Homo sapiens, UniProt Q93009). Kind of assay: STD-NMR titration for dissociation constant. It counts as binding.
Sequence of catalytic domain of USP7 (USP7-CD) (Q93009 208-560): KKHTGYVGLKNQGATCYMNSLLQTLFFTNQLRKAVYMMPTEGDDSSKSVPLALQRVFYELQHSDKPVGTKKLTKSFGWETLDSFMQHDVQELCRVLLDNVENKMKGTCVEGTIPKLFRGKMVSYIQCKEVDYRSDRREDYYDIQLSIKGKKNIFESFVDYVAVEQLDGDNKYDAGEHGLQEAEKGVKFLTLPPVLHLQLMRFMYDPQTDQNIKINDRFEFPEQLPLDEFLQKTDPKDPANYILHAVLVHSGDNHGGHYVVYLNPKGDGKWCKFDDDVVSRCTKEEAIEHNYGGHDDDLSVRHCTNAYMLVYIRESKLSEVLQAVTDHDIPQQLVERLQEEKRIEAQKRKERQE
The target in assay [5] is USP7-CD (Homo sapiens, UniProt Q93009). In words: Thermal shift assay. The following applies: decrease of Tm of USP7-CD, USP7 10 μM, ligand 1 mM.
Sequence of USP7-CD (Q93009 208-560): as above
For assay [6], the system named is USP7. The conditions noted are these: read-out: IC50 of USP7 inhibition; no reference given; cited from earlier work.

Molecules are shown by their SMILES. Structures can show the parent of a compound that is named as a salt.

Regarding `CN1CCC(=C2c3ccccc3CC(=O)c3sccc32)CC1` [Compound 7, Ketotifen], in assay [1], the “mRNA expression of tumor suppressor gene (p53)” value is listed as “non-significantly”. In assay [2], the IC50 (as a rule, the midpoint of a concentration-inhibition curve) worked out at 89 ± 1.55 µM. Moreover, the “mRNA expression of proto-oncogenes (USP7, MDM2, c-Myc)” value (“mRNA expression of proto-oncogenes” below) in assay [3] was “significantly decreased”. Also, the Kd (commonly the constant that tells how readily two partners part at equilibrium) in assay [4] was 1100 ± 880 µM.
`Nc1c(CC(=O)O)cccc1C(=O)c1ccc(Br)cc1` [Compound 1, Bromfenac Sodium] had a Kd in assay [4] of 780 ± 530 µM.
`O=C(O)Cc1ccccc1Nc1c(Cl)cccc1Cl` [Compound 2, Diclofenac Sodium] came in with a Kd in assay [4] of 760 ± 560 µM. The “Thermal Shift (Δtm)” value in assay [5] came to 2.40 °C.
With `CN(C)CCC[C@@]1(c2ccc(F)cc2)OCc2cc(C#N)ccc21` [Compound 11, Escitalopram], the “mRNA expression of tumor suppressor gene (p53)” value in assay [1] was “non-significantly”. Besides, in assay [2], half-maximal inhibition (IC50) required 227.6 ± 0.71 µM. Besides, in assay [3], the “mRNA expression of proto-oncogenes” value is recorded as “significantly decreased”. This molecule gave a Kd in assay [4] of 1220 ± 1120 µM.
In the case of `CC(CCc1ccccc1)NCC(O)c1ccc(O)c(C(N)=O)c1` (stereo not shown) [Compound 4, Labetalol Hydrochloride], the Kd in assay [4] was 910 ± 700 µM. Also, the “Thermal Shift (Δtm)” value in assay [5] came to 3.95 °C.
In turn, `CC(C(=O)O)c1cccc(C(=O)c2ccccc2)c1` (stereo not shown) [Compound 3, Ketoprofen] had a Kd in assay [4] of 620 ± 560 µM.
Take `CCN(CC)CC#CCOC(=O)C(O)(c1ccccc1)C1CCCCC1` (stereo not shown) [Compound 6, Oxybutynin HCl]: in assay [3], the “mRNA expression of proto-oncogenes” value is on record as “significantly decreased”. In assay [4], this molecule had a Kd of 660 ± 460 µM.
In turn, `COc1ccnc(C[S+]([O-])c2nc3ccc(OC(F)F)cc3[nH]2)c1OC` (stereo not shown) [Compound 10, Pantoprazole Sodium] gave an IC50 in assay [2] of 222 ± 0.29 µM. The “mRNA expression of proto-oncogenes” value in assay [3] was “significantly decreased”. Further, the Kd in assay [4] was 870 ± 280 µM.
Take `N#Cc1nc2c(nc1C#N)-c1ccc(Cl)cc1C2=O` [HBX 41108]: in assay [6], the IC50 was 0.424 µM. The “Thermal Shift (Δtm)” value in assay [5] (listed as 12) is 6.20 °C.
In the case of `Clc1ccccc1CN1CCc2sccc2C1` [Compound 8, Ticlopidine Hydrochloride], in assay [2], the “inhibition of proliferation of cancerous cells” value was “inactive”. This molecule also displayed a Kd in assay [4] of 1490 ± 1410 µM.
The like results for `Nc1nnc(-c2cccc(Cl)c2Cl)c(N)n1` [Compound 9, Lamotrigine] were, in that order, “inactive” and 1000 ± 560 µM.
